# Test results from PubChem BioAssay (NCI).
#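 A five-concentration, 48-hour dose response in 96-well plates underlies each endpoint, interpolated linearly between surrounding concentrations. TGI: total growth inhibition.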
# How the values were obtained:
# Test in all cases: NCI anticancer screen, dose series, 48 h
# CAKI-1 renal = tested on: CAKI-1 renal
# HCC-2998 colon = tested on: HCC-2998 colon
# HL-60(TB) leukemia = tested on: HL-60(TB) leukemia
# HOP-62 NSCLC = tested on: HOP-62 NSCLC
# HOP-92 NSCLC = tested on: HOP-92 NSCLC
# IGROV1 ovarian = tested on: IGROV1 ovarian
# KM12 colon = tested on: KM12 colon
# NCI-H522 lung = tested on: NCI-H522 lung
# RXF 393 renal = tested on: RXF 393 renal
# SF-268 CNS = tested on: SF-268 CNS
# SK-MEL-2 melanoma = tested on: SK-MEL-2 melanoma
# TK-10 renal = tested on: TK-10 renal
# MCF7 breast = tested on: MCF7 breast
# MDA-MB-435 = tested on: MDA-MB-435
# T-47D breast = tested on: T-47D breast
SMILES,TGI (CAKI-1 renal),TGI (HCC-2998 colon),TGI (HL-60(TB) leukemia),TGI (HOP-62 NSCLC),TGI (HOP-92 NSCLC),TGI (IGROV1 ovarian),TGI (KM12 colon),TGI (NCI-H522 lung),TGI (RXF 393 renal),TGI (SF-268 CNS),TGI (SK-MEL-2 melanoma),TGI (TK-10 renal),TGI (MCF7 breast),TGI (MDA-MB-435),TGI (T-47D breast)
COC1=CCC=C(C[C@@H]2NCCc3cc(OC)c(OC)cc32)C1,> 100 µM,> 100 µM,> 100 µM,> 100 µM,> 100 µM,> 100 µM,> 100 µM,> 100 µM,> 100 µM,> 100 µM,> 100 µM,> 100 µM,–,–,–
CC1(C)C(O)C[C@@H](O)[C@@]2(C)C1CC[C@]1(C)C2C[C@@H](O)[C@@H]2C([C@@]3(C)CC[C@@H](C(C)(C)O)O3)CCC21C (stereo partly specified),42.1 µM,31.4 µM,> 55 µM,30.3 µM,23.5 µM,28.1 µM,30.6 µM,27.8 µM,27.1 µM,32 µM,28.9 µM,> 62.1 µM,–,–,–
CC1Oc2c(c(=O)oc3ccccc23)[C@@]1(C)CC1C[C@H](C)C(=O)O1 (stereo partly specified),38.1 µM,56.2 µM,> 100 µM,> 100 µM,–,> 100 µM,> 100 µM,34.2 µM,–,42.8 µM,> 100 µM,> 100 µM,> 100 µM,47.8 µM,> 100 µM
COc1cc(C2C(C#N)=C(N)OC3=C2CCS(=O)(=O)c2ccc(C)cc23)cc(OC)c1OC (stereo unspecified),> 100 µM,> 100 µM,> 100 µM,> 100 µM,> 100 µM,> 100 µM,> 100 µM,> 100 µM,–,> 100 µM,> 100 µM,> 100 µM,–,> 100 µM,> 100 µM
COC(=O)[C@@H]1CN(C(C)=O)C(=O)N1C(=O)OCc1ccccc1,> 100 µM,> 100 µM,> 100 µM,> 100 µM,> 100 µM,> 100 µM,> 100 µM,> 100 µM,> 100 µM,> 100 µM,> 100 µM,> 100 µM,–,> 100 µM,> 100 µM
Oc1ccc(N=C2CCC(=C(c3ccccc3)c3ccc(Nc4ccc(O)cc4)cc3)CC2)cc1,> 100 µM,> 100 µM,–,–,> 100 µM,–,> 100 µM,> 100 µM,> 100 µM,> 100 µM,> 100 µM,> 100 µM,> 100 µM,> 100 µM,–
CCN1C(=O)C(C)S/C1=N\NC(=O)CSc1nc2ccccc2c(=O)n1CC (stereo unspecified),> 100 µM,> 100 µM,> 100 µM,> 100 µM,–,> 100 µM,> 100 µM,> 100 µM,> 100 µM,> 100 µM,> 100 µM,> 100 µM,> 100 µM,> 100 µM,> 100 µM
CC(C)(C)Nc1noc(=O)n1C(C)(C)C,> 100 µM,–,> 100 µM,> 100 µM,> 100 µM,> 100 µM,> 100 µM,> 100 µM,> 100 µM,> 100 µM,> 100 µM,> 100 µM,> 100 µM,> 100 µM,–
CCc1c(Cc2[nH]c(Cc3[nH]c(C=O)c(C)c3CC)c(CC)c2CC)[nH]c(C=O)c1C,> 100 µM,> 100 µM,> 100 µM,> 100 µM,–,–,–,> 100 µM,> 100 µM,> 100 µM,–,> 100 µM,–,–,–
CN(N)c1cc(=O)[nH]c(=O)[nH]1,> 100 µM,> 100 µM,> 100 µM,> 100 µM,–,> 100 µM,> 100 µM,> 100 µM,–,> 100 µM,–,> 100 µM,–,–,> 100 µM
CCOC(=O)C(C)NC(=O)C(C)NC(=O)C(C)NC(=O)C(C)NC(=O)C(C)NC(=O)OCc1ccccc1 (stereo unspecified),> 100 µM,> 100 µM,> 100 µM,> 100 µM,–,> 100 µM,> 100 µM,> 100 µM,> 100 µM,> 100 µM,> 100 µM,> 100 µM,> 100 µM,> 100 µM,> 100 µM
COc1cc2cccc(N)c2cc1OC,> 100 µM,> 100 µM,> 100 µM,> 100 µM,–,> 100 µM,> 100 µM,> 100 µM,> 100 µM,> 100 µM,> 100 µM,> 72 µM,> 100 µM,> 100 µM,> 100 µM
O=C(O)CCc1ccc2c(c1)C(=O)CC2,–,> 100 µM,> 100 µM,> 100 µM,–,> 100 µM,> 100 µM,> 100 µM,> 100 µM,> 100 µM,> 100 µM,> 100 µM,> 100 µM,> 100 µM,> 100 µM
O=C(O)c1ccc(NC(NC(=O)C(C(F)(F)F)C(F)(F)F)(C(F)(F)F)C(F)(F)F)cc1,> 100 µM,> 100 µM,> 100 µM,–,–,> 100 µM,–,–,> 100 µM,> 100 µM,> 100 µM,> 100 µM,–,> 100 µM,> 100 µM
Cc1cc(S(=O)(=O)Nc2cc(N)[nH]n2)c(SCc2nc(N)nc(N(C)C)n2)cc1Cl,> 10 µM,> 10 µM,> 10 µM,> 10 µM,> 10 µM,> 10 µM,> 10 µM,> 10 µM,> 10 µM,> 10 µM,> 10 µM,> 10 µM,> 10 µM,–,> 10 µM
O=C(O)c1cc(/C=C/c2cc(O)ccc2O)ccc1O,–,> 10 µM,> 10 µM,–,–,–,–,> 10 µM,–,> 10 µM,> 10 µM,> 10 µM,> 10 µM,> 10 µM,–
COc1cc(OC)c2nc(C)c3c(c2c1)NCC3,–,20.3 µM,40.7 µM,21.6 µM,30.9 µM,34 µM,–,19.6 µM,18.1 µM,20 µM,21.4 µM,35.7 µM,17.8 µM,21.6 µM,–
O=C(N=Nc1cccc(Cl)c1)NNc1cccc(Cl)c1,91.1 µM,28.9 µM,41.7 µM,22.2 µM,–,43.3 µM,–,42.6 µM,–,73.6 µM,24.6 µM,66.6 µM,–,26.5 µM,> 100 µM
